The target of data set [1] is T1, recombinant human ATase (Homo sapiens, UniProt P16455).
T1 construct: made in house
T1 sequence (P16455 1-207): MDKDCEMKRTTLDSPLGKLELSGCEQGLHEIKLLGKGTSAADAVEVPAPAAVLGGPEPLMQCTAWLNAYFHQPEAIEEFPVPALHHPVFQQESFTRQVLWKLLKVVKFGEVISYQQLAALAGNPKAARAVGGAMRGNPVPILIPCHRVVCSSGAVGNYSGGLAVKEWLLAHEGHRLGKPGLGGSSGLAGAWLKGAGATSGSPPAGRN
Put plainly: In vitro ATase inactivation assay (incubation with inactivators and ATase assay). Format: biochemical. Conditions: for ATase inactivation in vitro, result in words: recombinant human ATase, standard conditions. Here is the method: The cDNA cloning and overexpression of the human ATase has been reported previously^23. Purification of the recombinant proteins was achieved either by affinity chromatography through a DNA-cellulose column as described by Wilkinson et al.,^25, 26 or by DEAE-cellulose ion-exchange chromatography. For the latter, the ATase protein was partially purified by ammonium sulphate precipitation (30-60%) and dialysed against 10 mM Tris-HCl pH 7.5, 1 mM DTT, 2 mM EDTA, 10% glycerol, before loading on a DEAE-cellulose column. The ATase was then eluted with a 0-0.1 M NaCl gradient.
Compounds to be tested were dissolved in DMSO to a final concentration of 10 mM and diluted just before use in buffer I containing 1 mg/ml bovine serum albumin (IBSA). Recombinant ATase was diluted in IBSA and titrated in order that the reaction be conducted under ATase, and not substrate, limiting conditions. […] Following acid hydrolysis of the DNA as previously described^21 the [^3 H]-methylated protein was recovered and quantitated by liquid scintillation counting. Samples were typically assayed in duplicate and experiments repeated several times. I50 is the concentration of inactivator required to produce a 50% reduction in ATase activity.

The subject of data set [2] is Raji cells. The experiment in a line: Sensitization of Raji cells to temozolomide (XTT assay). Format: cell-based, human. Conditions: 0.1-5.0 μM inactivator (FIGS. 3, 4). On the procedure: (§1) Following a 2 hour incubation at 37° C., medium containing either increasing doses of BCNU, temozolomide or equivalent vehicle was added and the cells allowed to grow for 6 days. At this time XTT solution was added and the cells incubated for a further 4 hours at 37° C. The resulting red/orange formazan reaction product was quantified by measuring absorption at 450 nm on a microtitre platereader.

Data set [3] addresses T2, ATase in human melanoma xenografts (Homo sapiens, UniProt P16455).
T2 construct: A375M cells are human melanoma cells from which the xenografts described below were established; endogenous in cells; host or cells: A375M xenograft grown in nude mice
T2 sequence (P16455 1-207): T1 sequence (P16455 1-207)
Put plainly: ATase activity in human melanoma (A375) xenografts grown in nude mice after inactivator. Format: in vivo. Conditions: single i.p. dose 30 or 60 mg/kg (FIG. 17). Here is the method: Cells (10^6) in 100 μl of PBS were injected subcutaneously into the right-hand flank of 8-10 week old nu/nu athymic mice. These cells were allowed to develop into a tumour for 3-4 weeks for passaging into experimental animals. Tumour blocks measuring 2 mm×2 mm×2 mm were implanted subcutaneously on the right hand flank. These animals were ready for use in inactivator experiments in 7-10 days.
ATase substrate DNA was prepared by incubation of purified calf thymes DNA with N-[^3 H]-methyl-N-nitrosuourea (18.7 Ci/mmole, Amersham International). Cell or tissue extracts (see 4.4) were incubated with [^3 H]-methylated-DNA substrate (100 μl containing 6.7 μg of DNA and 100 fmol of O^6 -[^3 H]methylguanine) at 37° C. for 60 mins. Following acid hydrolysis of the DNA as precviously described^21the [^3 H]-methylated protein was recovered and quantitated by liquid scintillation counting.
Mice were treated with the inactivator as a suspension in corn oil by intraperitoneal injection (i.p.) or by oral gavage (p.o.) 60 mins prior to temozolomide (100 mg/kg in 20% DMSO in phosphate-buffered saline) which was always given by intraperitoneal injection: this schedule was repeated on days 1 to 5 inclusive. Controls received vehicle alone, inactivator alone or temozolomide alone.
For orientation: A xenograft is tissue or cells of one species grown in another, often human tumour cells in immunodeficient mice.

In data set [4] the test system is Raji cells. The experiment in a line: Sensitization of Raji cells to BCNU (XTT assay). It is filed as cell-based, human. Conditions: 1.0 μM inactivator (FIG. 2). On the procedure:
as §1
On the technique in general: Tetrazolium assays rely on reduction of a dye to a coloured formazan, in cell work by metabolically active cells.

In data set [5] the test system is human bone marrow granulocyte macrophage colony forming cells. Put plainly: Sensitization of bone marrow cells to temozolomide (GM-CFC assay). It is filed as cell-based. The text has this:
For the granulocyte/macrophage colony-forming cell (GM-CFC) assay primary human bone marrow samples were obtained from patients undergoing cardiothoracic surgery. […] The colonies represented precursor cells of the granulocyte/macrophage lineage (huGM-CFC). Survival was expressed as a % of the number of colonies at zero dose temozolomide.

Data set [6] deals with nude mice. The experiment in a line: Xenograft study: survival of nude mice given inactivator plus BCNU. Conditions: in combination with BCNU (FIGS. 9-13). The text has this:
BALB-C derived athymic male mice (nu/nu athymic) weighing between 25-35 g were obtained from the in-house breeding colony of the Paterson Institute for Cancer Research, Christie Hospital NHS Trust, Wilmslow Road, Manchester M20 9BX, England (ASU mice). The animals were housed in a sterile environment until required for experiments. In one experiment mice were obtained from Harlan-Olac, Harlan UK Limited, Shaw's Farm, Blackthorn, Bicester, Oxon. OX6 OPT, England (OLAC mice).

A short description of data set [7]: Toxicity of inactivators in combination with BCNU in DBA2 mice. It is filed as in vivo, mouse. Conditions: mouse, in vivo, ip, 60 mg/kg, single i.p. dose, read-out: % SURVIVAL AFTER 14 DAYS. The text has this:
All agents were given as a single i.p. dose

Where [8] appears, read: Table 9, pure recombinant ATase in vitro, read-out: I50 (μm).

Molecules are shown by their SMILES. “Also recorded” adds a separate entry of the source. Like-named read-outs stand apart in the source and are kept apart here.

For the compound `CC(Oc1nc(N)nc2[nH]cnc12)c1ccccc1` (racemic) [B.4214, DL-0^6 -(α-methylbenzyl)guanine, reference compound], the “ATase inactivation in vitro, result in words” value (“ATase inactivation in vitro” below) in data set [1] is reported as “reduce greatly the inactivating activity; also recorded: did not inactivate ATase up to the highest concentration used”. The same measure, in the same setting: in the case of `CC(Oc1nc(N)nc2[nH]cnc12)c1cccs1` (racemic) [B.4217, DL-0^6 -(α-methylthenyl)guanine] it was “reduce greatly the inactivating activity; also recorded: did not inactivate ATase up to the highest concentration used”.

In the case of `Nc1nc(OCc2ccsc2)c2nc[nH]c2n1` [B.4206, 0^6-(3-thienylmethyl)guanine], in data set [1], the “ATase inactivation in vitro” value is “somewhat more effective than BeG; also recorded: I50 values lower than that of BeG”. `Nc1nc(OCc2ccc3c(c2)OCO3)c2nc[nH]c2n1` [B.4212, 0^6 -piperonylguanine]: the “ATase inactivation in vitro” value in data set [1] is “considerably better; also recorded: I50 values lower than that of BeG”. Regarding `Nc1nc(OCc2cc3ccccc3s2)c2nc[nH]c2n1` [B.4226, 0^6-(2-benzo[b]thienylmethyl)guanine], the “ATase inactivation in vitro” value in data set [1] is on record as “I50 values lower than that of BeG”.

As to `COc1ccccc1COc1nc(N)nc2[nH]cnc12` [B.4231, O^6-(2-methoxybenzyl)guanine, reference compound], the IC50 in data set [1] (Table 4, 1 hour incubation with inactivator at 37° C., read-out: I50) is 60000 nM. Regarding `Nc1nc(OCc2cc3ccccc3o2)c2nc[nH]c2n1` [B.4266, 0^6-(2-benzofuranylmethyl)guanine], in data set [1], the “ATase inactivation in vitro” value is given as “I50 values lower than that of BeG”. Consider `Nc1nc(OCc2ccc(Br)s2)c2nc[nH]c2n1` [B.4269, 0^6-(5-bromothenyl)guanine], for which the “ATase inactivation in vitro” value in data set [1] was “more efficient than the unsubstituted thenyl derivative B.4205; also recorded: I50 values lower than that of BeG”. Take `N#Cc1ccc(COc2nc(N)nc3[nH]cnc23)o1` [B.4273, 0^6-(5-cyanofurfuryl)guanine]: the “ATase inactivation in vitro” value in data set [1] was “I50 values lower than that of BeG”. On the same count and under the same terms, in the case of `Nc1nc(OCc2cncs2)c2nc[nH]c2n1` [B.4275, 0^6-(5-thiazolylmethyl)guanine] it was “I50 values lower than that of BeG”. For the compound `Nc1nc(OCc2ccc(Cl)s2)c2nc[nH]c2n1` [B.4281, O^6-(5-chlorothenyl)guanine], the IC50 in data set [1] (setting [8]) worked out at 4 nM. On the same count and under the same terms, in the case of `N#Cc1ccc(COc2nc(N)nc3[nH]cnc23)s1` [B.4283, O^6-(5-cyanothenyl)guanine] it was 5 nM; in that of `C[S+]([O-])c1ccc(COc2nc(N)nc3[nH]cnc23)s1` (stereo not drawn) [B.4294, O^6-(5-methylsulphinylthenyl)guanine], 30 nM; in that of `Nc1nc(OCc2cc(Cl)cs2)c2nc[nH]c2n1` [B.4298, O^6-(4-chlorothenyl)guanine], 8 nM. Same read-out and setting: the result for `COc1csc(COc2nc(N)nc3[nH]cnc23)c1` [B.4300, O^6-(4-methoxythenyl)guanine] reads 16.5 nM; that for `Nc1nc(OCc2csc(Br)c2)c2nc[nH]c2n1` [B.4313, O^6-(5-bromo-3-thienylmethyl)guanine], 6.5 nM. For `N#Cc1csc(COc2nc(N)nc3[nH]cnc23)c1` [B.4317, O^6-(4-cyanothenyl)guanine], the IC50 in data set [1] (setting [8]) was 2.8 nM. Moreover, the “ATase inactivation in vitro” value in data set [1] is reported as “more efficient inactivator in vitro than its 5-cyano analogue B.4283 or the unsubstituted thenyl derivative B.4205”.

Take `Nc1nc(OCc2cc(Cl)c(Cl)s2)c2nc[nH]c2n1` [B.4318, O^6-(4,5-dichlorothenyl)guanine]: the IC50 in data set [1] (setting [8]) is 15 nM. Same read-out and setting: in the case of `Nc1nc(OCc2ccnc(Cl)c2)c2nc[nH]c2n1` [B.4321, O^6-(2-chloro-4-picolyl)guanine] it was 40 nM; in that of `Nc1nc(OCc2ccc(Br)o2)c2nc[nH]c2n1` [B.4336, O^6-(5-bromofurfuryl)guanine], 20 nM. Consider `Nc1nc(OCc2ccccc2)c2nc[nH]c2n1` [O^6 -benzylguanine, reference compound], for which the “dose response of Raji sensitization to temozolomide, in words” value in data set [2] is given as “clear dose response”. Further, the “inactivation of ATase in human melanoma xenografts, in words” value in data set [3] is on record as “inactivated”. Besides, the “sensitizing Raji cells to growth inhibitory effects of BCNU, in words” value in data set [4] is given as “equally effective”. The “sensitization of GM-CFC to cytotoxic effects of temozolomide, in words” value in data set [5] (four different patient samples, 10 μM (FIG. 23)) is “sensitized”. In addition, the “sensitization of GM-CFCs to toxic effects of temozolomide, in words” value in data set [5] (three human bone marrow samples (FIG. 14)) is “sensitised”. Moreover, the “death of treated animals” value in data set [6] is listed as “up to 70%”. Moreover, the survival at 336 h worked out at 50% in data set [7] (inactivator 60 mg/kg + 10 mg/kg BCNU), 0% in data set [7] (inactivator 60 mg/kg + 15 mg/kg BCNU (footnote *)) and 33% in data set [7] (inactivator 60 mg/kg + 20 mg/kg BCNU).

(Values after patent US6043228A, “O^6 -substituted guanine derivatives, a process for their preparation and their use in treating tumor cells” (Cancer Research Campaign Technology Limited, priority 1993, dated 2000).)
